Data set [1] addresses T1, Recombinant human PI3Kγ (full length human PI3K p110γ) (Homo sapiens, UniProt P48736).
T1 construct: full length human PI3K p110γ fused with a His6-tag at the C-terminus; His6 (C); purchased ALEXIS BIOCHEMICALS #201-055-C010; host or cells: S. frugiperda 9 insect cells
The experiment in a line: Kinase assay of PI3Kγ (solid-phase lipid kinase assay). The data set is classed as biochemical. The conditions noted are these: in vitro PI3K-γ inhibitory activity, class symbols A-D; read-out: in vitro PI3K-gamma.

The structures appear in SMILES notation.

T1 sequence (P48736 whole entry, the tested form may be a part): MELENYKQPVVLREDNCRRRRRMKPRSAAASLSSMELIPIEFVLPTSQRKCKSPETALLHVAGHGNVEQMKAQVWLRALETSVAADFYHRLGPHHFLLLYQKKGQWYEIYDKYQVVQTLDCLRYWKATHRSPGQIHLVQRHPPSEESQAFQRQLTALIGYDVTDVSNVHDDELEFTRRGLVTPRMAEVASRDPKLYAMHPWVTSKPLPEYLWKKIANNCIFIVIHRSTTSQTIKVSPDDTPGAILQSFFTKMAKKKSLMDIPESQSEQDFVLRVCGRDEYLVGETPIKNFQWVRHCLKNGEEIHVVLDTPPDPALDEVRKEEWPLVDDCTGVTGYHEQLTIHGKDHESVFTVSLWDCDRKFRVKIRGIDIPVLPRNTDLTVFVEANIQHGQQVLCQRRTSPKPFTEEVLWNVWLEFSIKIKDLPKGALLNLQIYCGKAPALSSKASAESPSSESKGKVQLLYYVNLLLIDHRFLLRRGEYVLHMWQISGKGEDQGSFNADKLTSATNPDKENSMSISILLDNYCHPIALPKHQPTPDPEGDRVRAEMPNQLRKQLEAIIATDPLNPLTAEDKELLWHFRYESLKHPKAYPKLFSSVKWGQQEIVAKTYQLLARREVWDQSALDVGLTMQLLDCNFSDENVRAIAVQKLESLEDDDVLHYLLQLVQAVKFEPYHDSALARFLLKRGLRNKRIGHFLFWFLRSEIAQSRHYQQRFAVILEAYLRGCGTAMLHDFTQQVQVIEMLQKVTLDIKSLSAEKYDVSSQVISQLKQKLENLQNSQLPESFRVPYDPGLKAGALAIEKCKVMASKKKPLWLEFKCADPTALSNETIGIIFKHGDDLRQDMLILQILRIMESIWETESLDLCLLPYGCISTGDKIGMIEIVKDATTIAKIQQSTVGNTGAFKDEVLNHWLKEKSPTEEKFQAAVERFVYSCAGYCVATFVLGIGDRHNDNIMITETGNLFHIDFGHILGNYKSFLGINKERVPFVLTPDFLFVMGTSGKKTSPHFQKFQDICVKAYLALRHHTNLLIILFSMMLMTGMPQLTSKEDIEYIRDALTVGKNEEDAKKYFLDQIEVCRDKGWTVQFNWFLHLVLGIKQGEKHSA

With `Cn1cccc1C(=O)NC1=Nc2ccccc2C2=NCCN12` [Example 2-296], the melting point was 128 to 129 °C. Besides, the IC50 in data set [1] fell in the range of 0.5 to 2 µM.
The like results for `O=C(NC1=Nc2ccccc2C2=NCCN12)c1ccco1` [Example 2-298] were, in that order, 350 °C (dec.) and 0.5 to 2 µM.
Take `Cl.O=C(NC1=Nc2ccccc2C2=NCCN12)c1ccco1` [Example 2-299]: the melting point is 311 °C (dec.). In addition, in data set [1], the IC50 was 0.5 to 2 µM.
The like results for `O=C(NC1=Nc2ccccc2C2=NCCN12)c1ccco1.O=C(O)C(F)(F)F` [Example 2-300] were, in that order, 230 to 232 °C and 0.1 to 0.5 µM.
The like results for `O=C(NC1=Nc2ccccc2C2=NCCN12)c1ccc(Cl)s1` [Example 2-301] were, in that order, 198 °C (dec.) and over 2 µM.
On to `Cc1ccc(C(=O)NC2=Nc3ccccc3C3=NCCN23)s1` [Example 2-302], for which the melting point was 192 to 193 °C. Moreover, in data set [1], the IC50 lay within 0.5 to 2 µM.
The matching figures for `O=C(NC1=Nc2ccccc2C2=NCCN12)c1ccc([N+](=O)[O-])s1` [Example 2-303]: 286 to 287 °C and over 2 µM.
`O=C(NC1=Nc2ccccc2C2=NCCN12)c1csc([N+](=O)[O-])c1` [Example 2-305]: the melting point was in the range of 269 to 270 °C. In addition, the IC50 in data set [1] was over 2 µM.
The matching figures for `O=C(NC1=Nc2ccccc2C2=NCCN12)c1csnn1` [Example 2-307]: 219 °C (dec.) and 0.5 to 2 µM.
On to `Cc1nc2cc(C(=O)NC3=Nc4ccccc4C4=NCCN34)ccc2[nH]1.Cl` [Example 2-308], for which the melting point is 344 °C (dec.). Also, the IC50 in data set [1] fell in the range of 0.1 to 0.5 µM.
As for `CC(C)n1c(C(F)(F)F)nc2cc(C(=O)NC3=Nc4ccccc4C4=NCCN34)ccc21` [Example 2-309], the melting point fell in the range of 250 to 253 °C. Besides, the IC50 in data set [1] is over 2 µM.
Regarding `O=C(NC1=Nc2ccccc2C2=NCCN12)c1ccc2[nH]nnc2c1.O=C(O)C(F)(F)F` [Example 2-310], the melting point is 252 °C (dec.). Moreover, the IC50 in data set [1] is 0.1 to 0.5 µM.
`CC(C)n1nnc2cc(C(=O)NC3=Nc4ccccc4C4=NCCN34)ccc21` [Example 2-311] returned a melting point of 202 to 203 °C. Also, the IC50 in data set [1] was over 2 µM.
As to `O=C(NC1=Nc2ccccc2C2=NCCN12)c1ccc2ncsc2c1` [Example 2-312], the melting point lay within 303 to 305 °C. For the same compound, the IC50 in data set [1] was over 2 µM.
Consider `Cl.O=C(NC1=Nc2ccccc2C2=NCCN12)c1ccc2ncsc2c1` [Example 2-313], for which the melting point is 314 °C (dec.). The IC50 in data set [1] lay in the range of 0.5 to 2 µM.
The like results for `Cn1c(C(=O)NC2=Nc3ccccc3C3=NCCN23)cc2ccccc21` [Example 2-314] were, in that order, 259 to 260 °C and over 2 µM.
The like results for `Cn1cc(C(=O)NC2=Nc3ccccc3C3=NCCN23)c2ccccc21` [Example 2-315] were, in that order, 288 to 289 °C and over 2 µM.
`O=C(NC1=Nc2ccccc2C2=NCCN12)c1cnc2ccccc2c1` [Example 2-316] displayed a melting point of 263 to 264 °C. The IC50 in data set [1] was over 2 µM.
For the compound `Cl.O=C(NC1=Nc2ccccc2C2=NCCN12)c1cnc2ccccc2c1` [Example 2-317], the melting point is 319 °C (dec.). Moreover, the IC50 in data set [1] was in the range of 0.1 to 0.5 µM.
With `Cl.O=C(NC1=Nc2ccccc2C2=NCCN12)c1cccc2cccnc12` [Example 2-318], the melting point is 316 °C (dec.). For the same compound, the IC50 in data set [1] is over 2 µM.
The matching figures for `O=C(NC1=Nc2ccccc2C2=NCCN12)c1csc(-c2cccnc2)n1` [Example 2-319]: 260 to 261 °C and over 2 µM.
Turning to `O=C(NC1=Nc2ccccc2C2=NCCN12)c1csc(-c2ccncc2)n1` [Example 2-321], the melting point was 281 °C (dec.). Moreover, in data set [1], the IC50 was over 2 µM.
The like results for `COc1ccc(CC(=O)NC2=Nc3ccccc3C3=NCCN23)cc1` [Example 2-323] were, in that order, 167 to 168 °C and over 2 µM.
With `O=C(Cc1cccs1)NC1=Nc2ccccc2C2=NCCN12` [Example 2-324], the melting point fell in the range of 122 to 123 °C. In addition, the IC50 in data set [1] was over 2 µM.
On to `O=C(COc1ccccc1)NC1=Nc2ccccc2C2=NCCN12` [Example 2-325], for which the melting point was 149 to 150 °C. Also, in data set [1], the IC50 was over 2 µM.
`CC(=O)NC1=Nc2ccccc2C2=NCCN12` [Example 2-326] showed a melting point of 189 °C. Moreover, the IC50 in data set [1] is over 2 µM.
The like results for `CCCC(=O)NC1=Nc2ccccc2C2=NCCN12` [Example 2-328] were, in that order, 121 to 122 °C and over 2 µM.
For `CC(C)CC(=O)NC1=Nc2ccccc2C2=NCCN12` [Example 2-329], the melting point is 154 °C (dec.). In data set [1], the IC50 was over 2 µM.
Turning to `CC(C)C(=O)NC1=Nc2ccccc2C2=NCCN12` [Example 2-330], the melting point fell in the range of 104 to 105 °C. The IC50 in data set [1] is over 2 µM.
In the case of `CC(C)(C)C(=O)NC1=Nc2ccccc2C2=NCCN12` [Example 2-331], the melting point was 135 to 136 °C. Further, the IC50 in data set [1] was over 2 µM.
The matching figures for `O=C(NC1=Nc2ccccc2C2=NCCN12)C(Cl)(Cl)Cl` [Example 2-332]: 194 °C (dec.) and 0.5 to 2 µM.
`O=C(NC1=Nc2ccccc2C2=NCCN12)C(F)(F)C(F)(F)F` [Example 2-333]: the melting point lay in the range of 210 to 211 °C. Further, in data set [1], the IC50 is over 2 µM.
As to `O=C(NC1=Nc2ccccc2C2=NCCN12)C1CC1` [Example 2-334], the melting point lay within 164 to 165 °C. In data set [1], the IC50 was over 2 µM.
Compound `O=C(NC1=Nc2ccccc2C2=NCCN12)C1CCCCC1` [Example 2-335] registered a melting point of 170 to 172 °C. Also, the IC50 in data set [1] was over 2 µM.
In turn, `O=C(NC1=Nc2ccccc2C2=NCCN12)C1CCCCN1C(=O)OCc1ccccc1` (stereo not drawn) [Example 2-337] displayed a melting point of 119 to 120 °C. Further, in data set [1], the IC50 was over 2 µM.
`CC(C)(C)OC(=O)N1CCCC(C(=O)NC2=Nc3ccccc3C3=NCCN23)C1` (stereo not drawn) [Example 2-338] displayed a melting point of 147 to 148 °C. Also, the IC50 in data set [1] was over 2 µM.
The like results for `O=C(NC1=Nc2ccccc2C2=NCCN12)C1CCNCC1` [Example 2-339] were, in that order, 179 to 180 °C and over 2 µM.
The matching figures for `O=C(NC1=Nc2ccccc2C2=NCCN12)C1CCN(C(=O)OCc2ccccc2)CC1` [Example 2-341]: 111 to 112 °C and over 2 µM.
In the case of `COc1cc2c(cc1OC)C1=NCCN1C(NC(C)=O)=N2` [Example 2-343], the melting point is 240 to 241 °C. Besides, the IC50 in data set [1] is over 2 µM.
For the compound `CCC(=O)NC1=Nc2cc(OC)c(OC)cc2C2=NCCN12` [Example 2-344], the melting point lay in the range of 224 to 225 °C. The IC50 in data set [1] was over 2 µM.
The compound `CN(C)c1ccc2c(c1)C1=NCCN1C(NC(=O)c1cccnc1)=N2` [Example 2-345] had a melting point of 269 °C. Besides, the IC50 in data set [1] was 0.5 to 2 µM.
With `CN(C)c1ccc2c(c1)C1=NCCN1C(NC(=O)c1cccs1)=N2` [Example 2-346], the melting point turned out to be 272 °C. The IC50 in data set [1] is over 2 µM.
In turn, `O=C(NC1=Nc2ccc(N3CCOCC3)cc2C2=NCCN12)c1cccnc1` [Example 2-347] gave a melting point of 244 °C. For the same compound, in data set [1], the IC50 was over 2 µM.
The compound `O=C(NC1=Nc2ccc(N3CCOCC3)cc2C2=NCCN12)c1cccs1` [Example 2-348] displayed a melting point of 124 °C. Further, the IC50 in data set [1] is over 2 µM.
`O=C(NC1=Nc2cc(C(F)(F)F)ccc2C2=NCCN12)c1cccs1` [Example 2-349] returned a melting point of 226 °C. In data set [1], the IC50 was in the range of 0.1 to 0.5 µM.
`Cl.O=C(NC1=Nc2cc(C(F)(F)F)ccc2C2=NCCN12)c1cccs1` [Example 2-350] showed a melting point of 292 °C. Further, the IC50 in data set [1] fell in the range of 0.5 to 2 µM.
For `O=C(NC1=Nc2ccc(Br)cc2C2=NCCN12)c1cccs1` [Example 2-351], the melting point was 232 °C. Moreover, the IC50 in data set [1] is over 2 µM.
In turn, `Cl.O=C(NC1=Nc2ccc(Br)cc2C2=NCCN12)c1cccs1` [Example 2-352] yielded a melting point of 275 °C. Also, the IC50 in data set [1] is 0.5 to 2 µM.
The matching figures for `O=C(NC1=Nc2cc(Cl)ccc2C2=NCCN12)c1cccnc1` [Example 2-353]: 254 °C and 0.1 to 0.5 µM.
`O=C(NC1=Nc2cc(Cl)ccc2C2=NCCN12)c1cccs1` [Example 2-354]: the melting point turned out to be 228 °C. In data set [1], the IC50 lay in the range of 0.5 to 2 µM.
The compound `O=C(NC1=Nc2ccc(Cl)cc2C2=NCCN12)c1cccs1` [Example 2-355] registered a melting point of 174 °C. Also, the IC50 in data set [1] was 0.5 to 2 µM.
In turn, `Cl.O=C(NC1=Nc2ccc(Cl)cc2C2=NCCN12)c1cccs1` [Example 2-356] yielded a melting point of 276 °C. In addition, the IC50 in data set [1] is 0.1 to 0.5 µM.
The like results for `O=C(NC1=Nc2cccc(Cl)c2C2=NCCN12)c1cccnc1` [Example 2-357] were, in that order, 243 °C and 0.5 to 2 µM.
As to `O=C(NC1=Nc2cccc(Cl)c2C2=NCCN12)c1cccs1` [Example 2-358], the melting point came out at 233 °C. The IC50 in data set [1] is over 2 µM.
In turn, `Cl.O=C(NC1=Nc2cccc(Cl)c2C2=NCCN12)c1cccs1` [Example 2-359] displayed a melting point of 227 °C. For the same compound, the IC50 in data set [1] was in the range of 0.5 to 2 µM.
For the compound `O=C(NC1=Nc2ccc(F)cc2C2=NCCN12)c1cccnc1` [Example 2-360], the melting point was determined as 242 °C. In addition, the IC50 in data set [1] was in the range of 0.5 to 2 µM.
As to `O=C(NC1=Nc2ccc([N+](=O)[O-])cc2C2=NCCN12)c1cccnc1.O=C(O)C(F)(F)F` [Example 2-362], the melting point turned out to be 224 °C. Moreover, the IC50 in data set [1] lay within 0.5 to 2 µM.

As usually defined, the melting point is the temperature, or range, at which the solid turns liquid.

(Values after US7511041B2, “Fused azole-pyrimidine derivatives” (Bayer Pharmaceuticals Corporation, priority 2002, dated 2009).)
